Reference: patent publication EP0018104A2, “Tetrahydroisoquinolines, their production and the compounds and pharmaceutical compositions containing them for use in the prevention or treatment of hypertension” (Takeda Chemical Industries, Ltd., priority 1979, dated 1980)
Where two headings read alike, the source gives them in different places.

Key:
[1] = system: Hypertensive Activity of Angiotensin I; assay: Effect against hypertensive activity of angiotensin I in anaesthetized-cannulated rats after oral dosing; assay type: in vivo, Male rats (Sprague-Dawley); settings: Rattus norvegicus, 138 µM/kg orally, corrected by angiotensin II response
Experimental: Male rats (Sprague-Dawley) weighing 230 to 350 g, which were fed under free access to drinking water and feeds, were used as experimental animals. The rats were anaesthetized with intraperitoneal administration of pentobarbital sodium (50 mg/kg) on the day before the test day, and a polyethylene tube was inserted into each femoral artery for measurement of blood pressare and the femoral vein for injection of angiotensin I and II, and then the tubes were fixed.
On the test day, an average blood pressure in the control phase was recorded on an electric haemedynamemeter (MP-4T model manufactured by Nippon Koden, Japan) and, thereafter, angiotensin I and then angionensin II were injected through the femoral vein at a dose of […] and 100 ng/kg, respectively, to measure the hypertensive activity. Then, 138 µM/kg of the compound of this invention were administrated orally as an aqueous solution or an aqueous gum arabic suspension, […], angiotensin I and II were injected repeatedly to trace hypertensive reactions. In calculating the percentage inhibition to the hypertensive activity of angiotensin 1, the percentage inhibitory value was corrected based on the variation with time in the hypertensive reaction by anziotensin II.

[2] = target: T1, angiotensin I converting enzyme (ACE) (Oryctolagus cuniculus, UniProt P12822); assay: Inhibition of angiotensin I converting enzyme (HHL substrate, hippuric acid colorimetry, modified Cushman method); assay type: biochemical, albino rabbit; settings: ACE from rabbit lung, 37°C, one hour, read-out: Inhibitory Activity on ACE (%); for inhibition at 1 µM: Concentration 1 µM; for inhibition at 10 µM: Concentration 10 µM
T1 construct: prepared from the lungs of albino rabbit according to the method described by Wallace et al; from tissue; host or cells: lungs of albino rabbit
T1 sequence (P12822 34-1310): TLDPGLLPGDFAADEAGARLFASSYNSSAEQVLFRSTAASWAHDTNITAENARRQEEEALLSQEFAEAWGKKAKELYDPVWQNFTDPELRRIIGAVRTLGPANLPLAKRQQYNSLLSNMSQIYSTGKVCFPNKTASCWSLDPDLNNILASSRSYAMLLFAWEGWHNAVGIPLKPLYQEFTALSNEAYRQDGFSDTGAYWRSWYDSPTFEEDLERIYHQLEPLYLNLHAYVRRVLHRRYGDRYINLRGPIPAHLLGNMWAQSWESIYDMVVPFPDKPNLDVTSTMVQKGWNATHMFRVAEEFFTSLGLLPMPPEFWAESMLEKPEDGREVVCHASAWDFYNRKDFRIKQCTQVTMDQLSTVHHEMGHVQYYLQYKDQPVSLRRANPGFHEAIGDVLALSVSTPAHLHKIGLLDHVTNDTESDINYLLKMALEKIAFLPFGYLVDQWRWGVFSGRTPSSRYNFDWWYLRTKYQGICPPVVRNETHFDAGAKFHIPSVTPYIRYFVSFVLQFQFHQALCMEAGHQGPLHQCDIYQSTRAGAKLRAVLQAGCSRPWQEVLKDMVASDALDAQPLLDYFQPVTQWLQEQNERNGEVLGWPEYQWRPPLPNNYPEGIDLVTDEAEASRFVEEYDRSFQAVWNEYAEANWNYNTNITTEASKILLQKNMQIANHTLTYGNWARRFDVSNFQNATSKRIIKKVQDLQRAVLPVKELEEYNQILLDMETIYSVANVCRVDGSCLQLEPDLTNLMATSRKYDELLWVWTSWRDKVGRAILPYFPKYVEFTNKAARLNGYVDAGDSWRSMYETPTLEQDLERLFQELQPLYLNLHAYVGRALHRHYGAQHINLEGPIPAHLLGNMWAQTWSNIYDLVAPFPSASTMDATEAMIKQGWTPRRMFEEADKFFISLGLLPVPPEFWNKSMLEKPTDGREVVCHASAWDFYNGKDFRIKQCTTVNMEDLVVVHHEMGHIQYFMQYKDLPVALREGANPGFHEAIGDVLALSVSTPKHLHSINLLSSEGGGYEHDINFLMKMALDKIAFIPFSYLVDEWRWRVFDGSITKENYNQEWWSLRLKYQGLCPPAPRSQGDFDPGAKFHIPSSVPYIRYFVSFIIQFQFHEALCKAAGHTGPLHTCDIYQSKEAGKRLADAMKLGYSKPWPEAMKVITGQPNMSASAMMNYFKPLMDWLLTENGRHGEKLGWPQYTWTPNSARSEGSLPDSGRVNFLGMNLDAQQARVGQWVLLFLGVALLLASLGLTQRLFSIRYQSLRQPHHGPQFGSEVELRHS
Experimental: Inhibitions of Angiotensin I Converting Enzyme by the Compounds of this Invention.
The experiment was conducted in accordance with a modification of the method described by Cushman et al. [Biochemical Pharmacology, Vol. 20, p1637(1971)] using an angiotensin I converting enzyme (ACE) prepared from the lungs of albino rabbit according to the method described by Wallace et al. [American Journal of Physiology, Vol 234, page R141(1978)]. That is, using hippuryl-L-histidyl-L-leucin (HHL) as the substrate, the ACE inhibitory activity was determined in terms of percentage inhibitation on the amount of hippurie acid produced by ACE when the present compound was added. A solution of the compound of the present invention dissolved in an 0.02 to 2% dimethyl sulfoxide-500 mMpotassium phosphate buffer solution (pH 8.3, containing 300 mM sodium chloride) was added to 100 µℓ of ACE (protein concentration, 20 mg/mℓ) and 100 µℓ of 1.25 mM HHL. In this experiment a potassium phosphate buffer solution containing dimethyl sulfoxide at a concentration equal to that of the test solution was used as a control. After incubating the solution at 37°C for one hour, 150 µℓ of 1N hydrochloric acid were added to the solution to terminate the reaction. After 1 mℓ of ethyl acetate was added, the solution was centrifuged at 3000 r.p.m. for 10 minutes. An 0.5 mℓ aliquot was separated from the ethyl acetate layer and dried at a temperature below 50°C under a nitrogen. gas stream. The residue was mixed with mℓ of 1M aqueous sodium chloride and the mixture was subjected to colorimetry at a wavelength of 228 nm.

[3] = 20 min, After 20 min, read-out: Percent Inhibition (%) against Hyper-tensive Reaction by Angiotensin I After 20 min
[4] = 1 h, After 60 min, read-out: Percent Inhibition (%) against Hyper-tensive Reaction by Angiotensin I After 60 min
[5] = 2 h, After 120 min, read-out: Percent Inhibition (%) against Hyper-tensive Reaction by Angiotensin I After 120 min

| inhibition at 1 µM [2] | inhibition at 10 µM [2] | SMILES | inhibition in vivo at 138 µM, 138 µmol/kg [1, 3] | inhibition in vivo at 138 µM, 138 µmol/kg [1, 4] | inhibition in vivo at 138 µM, 138 µmol/kg [1, 5] |
| --- | --- | --- | --- | --- | --- |
| – | – | CC(=O)SCC(C)C(=O)N1[C@H](C)c2cc(O)c(O)cc2C[C@H]1C(=O)O (some centres unmarked) [Example 5, (M, 3S)-2-(5-acetylthio-2-methylpropionyl)-6,7-dihycroxy-1-methyl-1,2,3,4-tetrahydroisquinoline-3-carboxylie acid] | 84% | 98% | 96% |
| – | – | CC(=O)SCC(CSC(C)=O)C(=O)N1Cc2cc3c(cc2CC1C(=O)O)CCCC3 (centres unmarked) [Example 58, 2-(3-acetylthio-2-acetylthiomethylpropionyl)-1,2,3,4,6,7,8,9-octahydrobenzo[g]isoquinoline-3--carboxylic aeid] | 80% | 78% | 66% |
| – | – | CC(=O)SCC(CSC(C)=O)C(=O)N1Cc2cc(C(C)C)ccc2CC1C(=O)O (centres unmarked) [Example 61, 2-(3-aeetylthio-2-acetylthiomethylpropionyl)-7-isopropyl-1,2,3,4-tetrahydroisoquinoline-3-carboxylic acid] | 78% | 84% | 58% |
| 23% | 87% | CC(=O)SCC(C)C(=O)N1Cc2cc(O)c(O)cc2C[C@H]1C(=O)O (stereo partly drawn) [Example 1, (3S)-2-(3-acetylthio-2-methylpropionyl)-6,7-dihydroxy-1,2,3,4-tetrahydroisoquinoline-5-carboxylie aeid] | – | – | – |
| 61% | 98% | CC(=O)SCC(C)C(=O)N1Cc2ccc(O)cc2CC1C(=O)O (centres unmarked) [Example 19, 2-(3-acetylthio-2-methylpropionyl)-6-hydroxy-1,2,3,4-tetrahydroisoquinoline-3-carboxylic acid] | – | – | – |
| – | – | CC(=O)SCC(C)C(=O)N1Cc2cc3c(cc2CC1C(=O)O)CCCC3 (centres unmarked) [Example 4] | 90% | 79% | 63% |
| 71% | 77% | CC(C)(C)c1ccc2c(c1)CN(C(=O)C(CS)CS)C(C(=O)O)C2 (centres unmarked) [Example 71, 7-tert-butyl-2-(3-mercapto-2-mereaptomethylprionyl)-1,2,3,4-tetrahydroisoquinoline-3-carboxylic acid] | – | – | – |
| – | – | CC(CS)C(=O)N1Cc2cc(C(C)(C)C)ccc2C[C@H]1C(=O)O (stereo partly drawn) [Example 51, (3S)-7-tert-butyl-2-(3-mercapto-2-methylproplonyl)-1,2,3,4-tetrahydroisoquinoline-3-carboxylic acid] | 100% | 100% | 78% |
| 62% | 99% | COc1cc2c(cc1OC)CN(C(=O)C(C)CSC(C)=O)C(C(=O)O)C2 (centres unmarked) [Example 6, 2-(3-acetylthio-2-methylpropionyl)-6,7-dimethoxy-1,2,3,4-tetrahydroisoquinoline-3-carboxylic aeid] | – | – | – |
| 83% | 100% | CC(=O)SCC(C)C(=O)N1Cc2cc3c(cc2C[C@H]1C(=O)O)OCO3 (stereo partly drawn) [Example 38, (3S)-2-(3-acetylthio-2-methylpropionyl)-6,7-methylenedioxy-1,2,3,4-tetrahydroisoquinoline-3-carboxylic acid] | – | – | – |
| 63% | 94% | CC(=O)SCC(C)C(=O)N1Cc2cc(CC(C)C)ccc2CC1C(=O)O (centres unmarked) [Example 34, 2-(3-acetylthio-2-methylpropionyl)-7-isobutyl-1,2,3,4-tetrahydroisoquinoline-3-carboxylic acid] | – | – | – |
| – | – | CC(=O)SCC(CSC(C)=O)C(=O)N1Cc2cc(O)c(O)cc2C[C@H]1C(=O)O [Example 56, (S)-2-(3-acetylthio-2-acetylthiomethyl-propionyl)-6,7-dihydroxy-1,2,3,4-tetrahydroisoquinoline-3-carboxylic acid] | 80% | 84% | 69% |
| 63% | 88% | CC(=O)SCC(C)C(=O)N1Cc2cc(C)ccc2CC1C(=O)O (centres unmarked) [Example 7] | – | – | – |
| – | – | CC(=O)SCC(C)C(=O)N1Cc2cc(N3CCCC3)ccc2CC1C(=O)O (centres unmarked) [Example 43] | 100% | 95% | 87% |
| – | – | COc1ccc2c(c1)CN(C(=O)C(C)CSC(C)=O)C(C(=O)O)C2 (centres unmarked) [Example 23, 2-(3-acetylthio-2-methylpropionyl)-7-methoxy-1,2, 3.4-tetrahydroisoquinoline-3-carboxylic acid] | 80% | 82% | 87% |
| – | – | O=C(O)C1Cc2cc3c(cc2CN1C(=O)C(CS)CS)OCO3 (centres unmarked) [Example 69, 2-(3-mercapto-2-mercapthylpropionyl)-6,7-methylenedioxy-1,2,3,4-tetrahydroisooquinoline-3-carboxylic acid] | 95% | 77% | 76% |
| – | – | CC(=O)SCC(C)C(=O)N1Cc2cc(C(C)(C)C)ccc2CC1C(=O)O (centres unmarked) [Example 3, 2-(3-acetylthio-2-methylpropionyl)-7-tert-utyl-1,2,3,4-tetrahydroisoquinoline-3-carboxylic acid] | 86% | 94% | 90% |
| – | – | CC(=O)SCC(CSC(C)=O)C(=O)N1Cc2ccc(O)cc2CC1C(=O)O (centres unmarked) [Example 60, 2-(3-acetylthio-2-acetylthiomethylpropionyl)-6-hydroxy-1,2,3,4-tetrahydroisoquinoline-3-carboxylic acid] | 82% | 77% | 71% |
